Usually IC50 stands for the concentration at which inhibition is half-maximal.

In this assay the target is Human recombinant carboxy-terminal his-tagged LDHA (amino acids 2-332) (Homo sapiens, UniProt P00338). The experiment in a line: LDHA enzyme inhibition assay (NADH fluorescence). As to conditions: LDHA IC50 (μM), 1 nM LDHA, NADH and pyruvate, stereochemistry of tested sample given.
With `COCCCOc1cccc(C2(c3ccsc3)CC(=O)C(Sc3ccccc3Cl)C(=O)N2)n1` (single isomer, unassigned) [Example 237, 3-(2-chlorophenyl)sulfanyl-6-[6-(3-methoxypropoxy)-2-pyridyl]-6-(3-thienyl) piperidine-2,4-dione], the IC50 was found to be 0.094 µM.
Consider `O=C1CC(c2ccsc2)(c2cccc(OCC3CCCO3)n2)NC(=O)C1Sc1ccccc1Cl` (single isomer, unassigned) [Example 238, 3-(2-chlorophenyl)sulfanyl-6-[6-(tetrahydrofuran-2-ylmethoxy)-2-pyridyl]-6-(3-thienyl)piperidine-2,4-dione], for which the IC50 was found to be 0.018 µM.
For the molecule `O=C1CC(c2ccsc2)(c2cccc(OCC3CCCO3)n2)NC(=O)C1Sc1ccccc1Cl` (single isomer, unassigned) [Example 239, 3-(2-chlorophenyl)sulfanyl-6-[6-(tetrahydrofuran-2-ylmethoxy)-2-pyridyl]-6-(3-thienyl)piperidine-2,4-dione], the IC50 was 0.015 µM.
As to `CC(CC1CC1)Oc1cccc(C2(c3ccsc3)CC(=O)C(Sc3ccccc3Cl)C(=O)N2)n1` (single isomer, unassigned) [Example 241, 3-(2-chlorophenyl)sulfanyl-6-[6-(2-cyclopropyl-1-methyl-ethoxy)-2-pyridyl]-6-(3-thienyl)piperidine-2,4-dione], the IC50 was found to be 0.003 µM.
Turning to `O=C1CC(c2ccsc2)(c2cccc(OCC3CCCC3)n2)NC(=O)C1Sc1ccccc1Cl` (single isomer, unassigned) [Example 243, 3-(2-chlorophenyl)sulfanyl-6-[6-(cyclopentylmethoxy)-2-pyridyl]-6-(3-thienyl) piperidine-2,4-dione], the IC50 amounted to 0.001 µM.
On to `O=C1CC(c2ccsc2)(c2cccc(OCC3CCC(CO)CC3)n2)NC(=O)C1Sc1ccccc1Cl` (single isomer, unassigned) [Example 244, 3-(2-chlorophenyl)sulfanyl-6-[6-[[4-(hydroxymethyl)cyclohexyl]methoxy]-2-pyridyl]-6-(3-thienyl) piperidine-2,4-dione], for which the IC50 is 0.023 µM.
`O=C1CC(c2ccsc2)(c2cccc(OCC(F)F)n2)NC(=O)C1Sc1ccccc1Cl` (single isomer, unassigned) [Example 245, 3-(2-chlorophenyl)sulfanyl-6-[6-(2,2-difluoroethoxy)-2-pyridyl]-6-(3-thienyl) piperidine-2,4-dione]: the IC50 came out at 0.018 µM.
With `CC(CC1CC1)Oc1cccc(C2(c3ccsc3)CC(=O)C(Sc3ccccc3Cl)C(=O)N2)n1` (single isomer, unassigned) [Example 251, 3-(2-chlorophenyl)sulfanyl-6-[6-(2-cyclopropyl-1-methyl-ethoxy)-2-pyridyl]-6-(3-thienyl) piperidine-2,4-dione], the IC50 was 0.019 µM.
In the case of `O=C1CC(c2ccsc2)(c2cccc(OCC3CCCC3)n2)NC(=O)C1Sc1ccccc1Cl` (single isomer, unassigned) [Example 252, 3-(2-chlorophenyl)sulfanyl-6-[6-(cyclopentyl-methoxy)-2-pyridyl]-6-(3-thienyl)pipereidine-2,4-dione], the IC50 was 0.079 µM.
Take `O=C1CC(c2ccsc2)(c2cccc(OCC(F)F)n2)NC(=O)C1Sc1ccccc1Cl` (single isomer, unassigned) [Example 254, 3-(2-chlorophenyl)sulfanyl-6-[6-(2,2-difluoroethoxy)-2-pyridyl]-6-(3-thienyl) piperidine-2,4-dione]: the IC50 worked out at 0.047 µM.
Take `O=C1CC(c2ccsc2)(c2cccc(Cc3ccc(F)c(F)c3)n2)NC(=O)C1Sc1ccccc1Cl` (single isomer, unassigned) [Example 256, 3-((2-chlorophenyl)thio)-6-(6-(3,4-difluorobenzyl)pyridin-2-yl)-6-(thiophen-3-yl)piperidine-2,4-dione]: the IC50 amounted to 0.062 µM.
For `CN(c1ccc(F)cc1)c1cccc(C2(c3ccsc3)CC(=O)C(Sc3ccccc3Cl)C(=O)N2)n1` (single isomer, unassigned) [Example 262, 3-((2-chlorophenyl)thio)-6-(6-((4-fluorophenyl) (methyl)amino)pyridin-2-yl)-6-(thiophen-3-yl)piperidine-2,4-dione], the IC50 stood at 0.104 µM.
Regarding `CN(c1ccc(F)cc1)c1cccc(C2(c3ccsc3)CC(=O)C(Sc3ccccc3Cl)C(=O)N2)n1` (single isomer, unassigned) [Example 265, 3-((2-chlorophenyl)thio)-6-(6-((4-fluorophenyl) (methyl)amino)pyridin-2-yl)-6-(thiophen-3-yl) piperidine-2,4-dione], the IC50 turned out to be 0.022 µM.
Turning to `CN(c1ccc(F)cc1)c1cccc(C2(c3ccsc3)CC(=O)C(Sc3ccccc3Cl)C(=O)N2)n1` (single isomer, unassigned) [Example 266, 3-((2-chlorophenyl)thio)-6-(6-((4-fluorophenyl) (methyl)amino)pyridin-2-yl)-6-(thiophen-3-yl) piperidine-2,4-dione], the IC50 is 0.099 µM.
`O=C1CC(c2ccsc2)(c2cccc(CCc3ccc(F)cc3)n2)NC(=O)C1Sc1ccccc1Cl` (single isomer, unassigned) [Example 268, 3-((2-chlorophenyl)thio)-6-(6-(4-fluorophenethyl)pyridin-2-yl)-6-(thiophen-3-yl)piperidine-2,4-dione]: the IC50 was 0.402 µM.
As to `O=C1CC(c2ccsc2)(c2cccc(Cc3ccc(F)c(F)c3)n2)NC(=O)C1Sc1ccccc1Cl` (single isomer, unassigned) [Example 281, 3-((2-chlorophenyl)thio)-6-(6-(3,4-difluorobenzyl)pyridin-2-yl)-6-(thiophen-3-yl)piperidine-2,4-dione], the IC50 turned out to be 0.189 µM.
As to `O=C1CC(c2ccsc2)(c2cccc(Cc3ccc(F)c(F)c3)n2)NC(=O)C1Sc1ccccc1Cl` (single isomer, unassigned) [Example 282, 3-((2-chlorophenyl)thio)-6-(6-(3,4-difluorobenzyl)pyridin-2-yl)-6-(thiophen-3-yl)piperidine-2,4-dione], the IC50 amounted to 0.012 µM.
For the molecule `COc1cc(Cc2cccc(C3(c4ccsc4)CC(=O)C(Sc4ccccc4Cl)C(=O)N3)n2)ccc1F` (single isomer, unassigned) [Example 283, 3-((2-chlorophenyl)thio)-6-(6-(4-fluoro-3-methoxy-benzyl)pyridin-2-yl)-6-(thiophen-3-yl)piperidine-2,4-dione], the IC50 was determined as 0.037 µM.
On to `COc1cc(Cc2cccc(C3(c4ccsc4)CC(=O)C(Sc4ccccc4Cl)C(=O)N3)n2)ccc1F` (single isomer, unassigned) [Example 284, 3-((2-chlorophenyl)thio)-6-(6-(4-fluoro-3-methoxy-benzyl)pyridin-2-yl)-6-(thiophen-3-yl)piperidine-2,4-dione], for which the IC50 was determined as 0.041 µM.
As for `O=C1CC(c2ccsc2)(c2cccc(NCc3ccc(F)cc3)n2)NC(=O)C1Sc1ccccc1Cl` (single isomer, unassigned) [Example 285, 3-((2-chlorophenyl)thio)-6-(6-((4-fluorobenzyl)amino)pyridin-2-yl)-6-(thiophen-3-yl)piperidine-2,4-dione], the figure is 0.01 µM; as for `O=C1CC(c2ccsc2)(c2cccc(OCc3ccc(F)cc3)n2)NC(=O)C1Sc1ccccc1Cl` (single isomer, unassigned) [Example 289, 3-((2-chlorophenyl)thio)-6-(6-((4-fluorobenzyl)oxy)pyridin-2-yl)-6-(thiophen-3-yl)piperidine-2,4-dione], 0.022 µM.
As for `O=C1CC(c2ccsc2)(c2cccc(NCc3ccc(F)cc3)n2)NC(=O)C1Sc1ccccc1Cl` (single isomer, unassigned) [Example 291, 3-((2-chlorophenyl)thio)-6-(6-((4-fluorobenzyl)amino)pyridin-2-yl)-6-(thiophen-3-yl)piperidine-2,4-dione], the IC50 was determined as 0.093 µM.
Consider `O=C1CC(c2ccsc2)(c2cccc(NCc3ccc(F)cc3)n2)NC(=O)C1Sc1ccccc1Cl` (single isomer, unassigned) [Example 292, 3-((2-chlorophenyl)thio)-6-(6-((4-fluorobenzyl)amino)pyridin-2-yl)-6-(thiophen-3-yl)piperidine-2,4-dione], for which the IC50 came out at 0.037 µM.
Regarding `O=C1CC(c2ccsc2)(c2cccc(CCc3ccc(F)cc3)n2)NC(=O)C1Sc1ccccc1Cl` (single isomer, unassigned) [Example 293, 3-((2-chlorophenyl)thio)-6-(6-(4-fluorophenethyl)pyridin-2-yl)-6-(thiophen-3-yl)piperidine-2,4-dione], the IC50 is 0.091 µM.
Then `O=C1CC(c2ccsc2)(c2cccc(CCc3ccc(F)cc3)n2)NC(=O)C1Sc1ccccc1Cl` (single isomer, unassigned) [Example 294, 3-((2-chlorophenyl)thio)-6-(6-(4-fluorophenethyl)pyridin-2-yl)-6-(thiophen-3-yl)piperidine-2,4-dione], with 0.036 µM; and `O=C1CC(c2ccsc2)(c2cccc(OCc3ccc(F)cc3)n2)NC(=O)C1Sc1ccccc1Cl` (single isomer, unassigned) [Example 298, 3-((2-chlorophenyl)thio)-6-(6-((4-fluorobenzyl)oxy)pyridin-2-yl)-6-(thiophen-3-yl)piperidine-2,4-dione], with 0.063 µM; and `COc1ccccc1Oc1cccc(C2(c3ccsc3)CC(=O)C(Sc3ccccc3Cl)C(=O)N2)n1` (single isomer, unassigned) [Example 337, 5-(2-chlorophenyl)sulfanyl-4-hydroxy-2-[6-(2-methoxyphenoxy)-2-pyridyl]-2-(3-thienyl)-1,3-dihydropyridin-6-one], with 0.021 µM.
As to `C[C@H](Nc1cccc(C2(c3ccsc3)CC(=O)C(Sc3ccccc3Cl)C(=O)N2)n1)c1ccc(F)cc1` (stereo in doubt) [Example 303, 3-((2-chlorophenyl)thio)-6-(6-((1-(4-fluorophenyl)ethyl)amino)pyridin-2-yl)-6-(thiophen-3-yl) piperidine-2,4-dione], the IC50 was determined as 0.434 µM.
With `C[C@@H](CC1CC1)Oc1cccc(C2(c3ccsc3)CC(=O)C(Sc3ccccc3Cl)C(=O)N2)n1` (stereo in doubt) [Example 322, 3-((2-chlorophenyl)thio)-6-(6-((1-cyclopropyl-propan-2-yl)oxy)pyridin-2-yl)-6-(thiophen-3-yl) piperidine-2,4-dione], the IC50 is 0.012 µM.

For the origin of these results see US20170001990A1 (Genentech, Inc., priority 2014, published 2017).
